US6218112A, “Optimization of gene delivery and gene delivery system” (Cobra Therapeutics Limited, priority 1997, dated 2001)
* marks the point of attachment. Acm = CC(=O)NC*

System: KLN-205 squamous epithelial syngenic tumour cells
Assay: In vivo transfection of KLN-205 tumours in DBA2 mice by local injection of peptide/plasmid complexes (nitroreductase immunostaining)
Parameters: species or system mouse
Conditions: for ranking by numbers of transfected tumor cells (most to least efficient): 0.5 μg peptide/μg DNA, intratumoural injection
Protocol: A representative in via cell transfection system is transfection of tumor cells using a murine carcinoma model.
The murine carcinoma model DBA2 containing the squamous epithelial syngenic tumour cell line KLN-205 was prepared as described in the Examples. A transfecting complex was prepared using a solution of plasmid DNA encoding a reporter gene or, for example, nitroreductase and a selected NBC peptide 0.5 μg peptide/μg DNA, as described herein. Where desired, a conjugate peptide was added to the transfecting complex, at a concentration of 0.1-0.3 μg […] peptide/μg DNA.
Transfection efficiency may be determined in a number of ways, including assessing the effect of the reporter gene on the target tissue, or by quantitating the gene product. Below, tissues samples were obtained and nitroreductase gene expression was ascertained via staining of tissue sections.
The ability to transfect tumor cells in vivo in mice was tested using plasmid nucleic acid carrying the nitroreductase reporter gene condensed on each of the following peptides: NBC15, NBC8, NBC9, NBC11, NBC7.
DBA2--male mice, aged 5-10 weeks were injected subcutaneously in each flank with a squamous epithelial syngenic tumour cell line KLN-205. The cell line was grown up in 175 ml T-flasks in standard EMEM medium containing 10% foetal calf serum. When the cells reached a density of 4×10^6 they were suspended by a standard trypsinization technique, washed in PBS and diluted to a final concentration of […].
The anaesthetic was Enflurane (Alynane; Anaquest, Ltd., Windlesham, Surrey UK): Ketamine (10% Ketaset, Willows Francis Veterinary, Cramley, West Sussex, UK); Rompun (2%, Bayer UK, Ltd., Suffolk, UK). For 10 ml anaesthetic mixture: 8.5 ml PBS; 1 ml Ketamine; 0.5 ml Rompun. Each animal was injected intra-peritoneally with 200 μl/animal using 1 ml syringe with 25 gauge needle. Once anaesthetized, the tumour is manipulated between the fingers lifting it slightly away from the animal's body and at the same time apply minimum pressure to the tumour. Using a 0.5 ml insulin needle the formulated delivery vehicle (a plasmid containing the E. coli nitroreductase gene condensed on a peptide at a ratio of 0.5 μg peptide/μg DNA) to be injected is taken up and the tumour is injected horizontally trying to avoid any visible blood vessels and necrotic or abnormal tissue. Daily monitoring is continued until the experiment is terminated.
7μ sections of frozen tumour tissue are prepared using standard methods and a Cryostat and air dried. Sections are fixed with freshly prepared 4% PFA/PBS for 30 mins at room temperature and then washed twice with 0.01% Tween-20/PBS 5 mins each wash. Sections are then immersed in 0.25% hydrogen peroxide/PBS, at room temperature (20C.) for 30 mins, and then washed three times in 0.01% Tween 20/PBS for 5 mins each wash. Sections are then permeabilised by treatment with ice cold 0.1 % TRITON X-100 for 5 mins, followed by a further two washes in 0.01% Tween-20/PBS 5mins each wash. The sections are then blocked with 5% NGS/PBS 60mins at room temperature in a wetbox. After decanting the blocking solution, 0.5 ml diluted antiserum/slide (1:400 in 2.5% NGS) is added and the sections incubated for 60 mins at room temperature. Slides are then washed three times in 0.01% Tween-20/PBS 5 mins each wash. Secondary antibody (0.5 ml) from ABC Elite Vector stain kit is added as follows and incubated 30 mins at room temperature in a wetbox.
The tumour is a murine syngenic squamous carcinoma produced by subcutaneous injection of KLN205 cells. When the tumours were approximately 4 mm in diameter they were injected with 20 μl of plasmid DNA formulated with the NBC15 peptide. After 48 h the tumours were excised and sectioned by standard histological techniques and immunostained for expression of the transgene (E. coli nitroreductase). […] In this case the tumours were injected with the same plasmid formulated in 0.5 μg NBC9 peptide/μg DNA.

Row | Substance | ranking by numbers of transfected tumor cells (most to least efficient) | transfection efficiency on direct injection within a localized area (in vivo, direct injection, e.g. a tumour)
1 | NH2-KKSPKKAKKPAAKKSPKKAKKPAYC(Acm)-COOH (H-KKSPKKAKKPAAKKSPKKAKKPAYC(Acm)-OH; SMILES CC(=O)NCSC[C@H](NC(=O)[C@H](Cc1ccc(O)cc1)NC(=O)[C@H](C)NC(=O)[C@@H]1CCCN1C(=O)[C@H](CCCCN)NC(=O)[C@H](CCCCN)NC(=O)[C@H](C)NC(=O)[C@H](CCCCN)NC(=O)[C@H](CCCCN)NC(=O)[C@@H]1CCCN1C(=O)[C@H](CO)NC(=O)[C@H](CCCCN)NC(=O)[C@H](CCCCN)NC(=O)[C@H](C)NC(=O)[C@H](C)NC(=O)[C@@H]1CCCN1C(=O)[C@H](CCCCN)NC(=O)[C@H](CCCCN)NC(=O)[C@H](C)NC(=O)[C@H](CCCCN)NC(=O)[C@H](CCCCN)NC(=O)[C@@H]1CCCN1C(=O)[C@H](CO)NC(=O)[C@H](CCCCN)NC(=O)[C@@H](N)CCCCN)C(=O)O) [NBC8] | NBC15>NBC8, NBC9, NBC11>NBC7>>>poly-lysine | optimal transfection efficiency
2 | NH2-TKKAWKKAEKKAAKKCGVSAKKAAKKAWKKA-CONH2 (H-TKKAWKKAEKKAAKKCGVSAKKAAKKAWKKA-NH2) [NBC11] | NBC15>NBC8, NBC9, NBC11>NBC7>>>poly-lysine | 
